Here are results for four compounds from ChEMBL document CHEMBL3259585, “Molecular basis of the selective binding of MDMA enantiomers to the alpha4beta2 nicotinic receptor subtype: synthesis, pharmacological evaluation and mechanistic studies” (Eur J Med Chem, 2014).

Assay [1] concerns the target Sodium-dependent serotonin transporter (Rattus norvegicus, UniProt P31652). The experiment in a line: Displacement of [3H]-citalopram from SERT in Sprague-Dawley rat cortex, striatum and cerebellum-dissected brain after 60 mins by scintillation counting analysis. In kind it is tissue-based. A general note: Loss of bound radioactivity is the signal in a displacement assay; it reports binding, not function.

Assay [2] deals with T1, Neuronal acetylcholine receptor; alpha4/beta2 (Rattus norvegicus) (UniProt P09483+P12390). Put plainly: Stimulation of [3H]epibatidine binding to alpha4beta2 nAChR in rat PC12 cells at 100 uM preincubated for 24 hrs followed by radioligand addition measured after 90 mins by liquid scintillation spectrometric analysis. In kind it is cell-based. The conditions noted are these: PC-12.

The target in assay [3] is T2, Neuronal acetylcholine receptor; alpha4/beta2 (Rattus norvegicus, UniProt P09483+P12390). Put plainly: Displacement of [3H]epibatidine from alpha4beta2 nAChR in Sprague-Dawley rat brain cortical membrane after 3 hrs. In kind it is tissue-based.
Assay [4] addresses T2, Neuronal acetylcholine receptor; alpha4/beta2. Put plainly: (§1) Displacement of [3H]epibatidine from alpha4beta2 nAChR in Sprague-Dawley rat brain cortical membrane after 3 hrs by liquid scintillation spectrometric analysis. The class given is tissue-based.
Assay [5] concerns the target T1, Neuronal acetylcholine receptor; alpha4/beta2 (Rattus norvegicus). Described as §1. In kind it is tissue-based.
The test system of a further assay is Rattus norvegicus. The experiment in a line: In vivo stimulation of [3H]epibatidine binding to nicotinic acetylcholine receptor in rat prefrontal cortex relative to control. The class given is functional.

SMILES strings stand for the structures. Calls of active or inactive are those of the source. No cut-off for these calls is given here.

T2 sequence (P09483 whole entry): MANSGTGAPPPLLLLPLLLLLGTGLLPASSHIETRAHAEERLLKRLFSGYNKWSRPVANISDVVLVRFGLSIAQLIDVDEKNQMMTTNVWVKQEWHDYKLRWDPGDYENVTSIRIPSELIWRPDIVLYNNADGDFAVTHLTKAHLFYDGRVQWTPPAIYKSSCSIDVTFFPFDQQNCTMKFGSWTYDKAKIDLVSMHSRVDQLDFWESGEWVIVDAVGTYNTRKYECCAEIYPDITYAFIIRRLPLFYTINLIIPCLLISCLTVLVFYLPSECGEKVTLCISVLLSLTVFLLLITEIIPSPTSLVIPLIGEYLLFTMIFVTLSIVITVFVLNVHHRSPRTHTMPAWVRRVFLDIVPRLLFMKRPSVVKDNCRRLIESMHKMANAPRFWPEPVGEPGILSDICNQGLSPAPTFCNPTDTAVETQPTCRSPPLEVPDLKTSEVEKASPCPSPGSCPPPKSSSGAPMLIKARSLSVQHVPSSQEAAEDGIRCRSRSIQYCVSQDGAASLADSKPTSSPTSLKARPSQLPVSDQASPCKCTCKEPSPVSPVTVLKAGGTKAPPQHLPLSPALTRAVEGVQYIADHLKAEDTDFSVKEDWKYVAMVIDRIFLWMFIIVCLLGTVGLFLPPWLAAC
T2 sequence (P12390 whole entry): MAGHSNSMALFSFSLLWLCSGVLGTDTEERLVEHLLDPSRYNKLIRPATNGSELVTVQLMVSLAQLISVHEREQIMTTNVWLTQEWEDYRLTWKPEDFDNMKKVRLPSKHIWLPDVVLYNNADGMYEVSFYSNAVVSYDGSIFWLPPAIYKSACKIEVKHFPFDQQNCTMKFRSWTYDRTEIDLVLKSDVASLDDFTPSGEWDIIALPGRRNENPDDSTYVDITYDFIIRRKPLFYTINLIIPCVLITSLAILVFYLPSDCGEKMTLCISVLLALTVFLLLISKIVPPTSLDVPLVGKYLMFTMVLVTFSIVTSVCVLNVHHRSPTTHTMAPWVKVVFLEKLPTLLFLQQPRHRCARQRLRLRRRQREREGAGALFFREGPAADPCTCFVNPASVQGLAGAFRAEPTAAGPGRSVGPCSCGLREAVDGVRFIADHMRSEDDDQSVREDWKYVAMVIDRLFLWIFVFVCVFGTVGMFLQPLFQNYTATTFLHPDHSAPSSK
Sequence of Sodium-dependent serotonin transporter (P31652 whole entry): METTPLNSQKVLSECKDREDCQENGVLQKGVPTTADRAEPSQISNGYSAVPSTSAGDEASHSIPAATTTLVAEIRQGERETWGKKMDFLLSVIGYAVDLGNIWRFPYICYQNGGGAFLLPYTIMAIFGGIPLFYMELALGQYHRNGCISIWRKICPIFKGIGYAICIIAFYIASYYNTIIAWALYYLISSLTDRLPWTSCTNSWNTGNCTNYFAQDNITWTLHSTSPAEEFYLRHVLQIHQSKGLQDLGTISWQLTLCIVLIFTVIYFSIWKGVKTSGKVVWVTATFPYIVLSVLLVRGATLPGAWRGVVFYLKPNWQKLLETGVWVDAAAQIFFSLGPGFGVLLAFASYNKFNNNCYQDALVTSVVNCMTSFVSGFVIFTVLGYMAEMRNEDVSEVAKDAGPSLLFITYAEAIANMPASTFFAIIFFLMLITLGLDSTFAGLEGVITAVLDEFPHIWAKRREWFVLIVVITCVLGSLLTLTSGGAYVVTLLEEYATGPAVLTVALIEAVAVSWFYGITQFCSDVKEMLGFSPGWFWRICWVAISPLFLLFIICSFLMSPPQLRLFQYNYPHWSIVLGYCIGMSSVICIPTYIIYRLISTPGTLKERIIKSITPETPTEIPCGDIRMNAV

Regarding `CN[C@H](C)Cc1ccc2c(c1)OCO2`, the inhibitory constant (Ki) came to 24.5 µM in assay [1] and 0.63 µM in assay [3]. Besides, the outcome in assay [2] was Active. The compound also came in with a half-maximal inhibitory concentration (IC50) in assay [4] of 13.4 µM. For the same compound, in assay [5], the inhibition entry was “Dose-dependent effect”.

Consider `CN1CCC[C@H]1c1cccnc1` [NICOTINE], for which the Activity with Rattus norvegicus stood at 30%.

For the compound `CN[C@@H](C)Cc1ccc2c(c1)OCO2`, the result in assay [2] was inactive. Also, the Ki in assay [3] stood at 8.21 µM. This compound also showed a half-maximal inhibitory concentration (IC50) in assay [4] of 173 µM. The inhibition entry in assay [5] was “Dose-dependent effect”.

Take `CNC(C)Cc1ccc2c(c1)OCO2` (racemic) [MIDOMAFETAMINE]: the Activity with Rattus norvegicus came to 35%. Further, in assay [2], the result was Active. In assay [3], the Ki is 1.44 µM. In addition, the IC50 in assay [4] is 30.4 µM. Also, the inhibition entry in assay [5] is “Dose-dependent effect”.

The term Ki denotes the equilibrium dissociation constant of an inhibitor or competing ligand from its target. A word on the IC50: it is the concentration needed to halve the response being measured. High values mean a need for much substance, low ones inhibition by little substance.
